The source of these data is publication PMC4869175, “Evidence that phytochrome functions as a protein kinase in plant light signalling” (Nature Communications, 2016).

Numbering of substitutions follows the chain as printed. Names may count otherwise.

The chains are these.
T1: photosensory core of AsphyA (66-610) (Avena sativa, UniProt P06593)
T1 construct: the PAS-GAF-PHY photosensory core (66–610aa) were also cloned into pPIC3.5K; made in house; host or cells: Pichia pastoris GS115
T1 sequence (P06593 66-610): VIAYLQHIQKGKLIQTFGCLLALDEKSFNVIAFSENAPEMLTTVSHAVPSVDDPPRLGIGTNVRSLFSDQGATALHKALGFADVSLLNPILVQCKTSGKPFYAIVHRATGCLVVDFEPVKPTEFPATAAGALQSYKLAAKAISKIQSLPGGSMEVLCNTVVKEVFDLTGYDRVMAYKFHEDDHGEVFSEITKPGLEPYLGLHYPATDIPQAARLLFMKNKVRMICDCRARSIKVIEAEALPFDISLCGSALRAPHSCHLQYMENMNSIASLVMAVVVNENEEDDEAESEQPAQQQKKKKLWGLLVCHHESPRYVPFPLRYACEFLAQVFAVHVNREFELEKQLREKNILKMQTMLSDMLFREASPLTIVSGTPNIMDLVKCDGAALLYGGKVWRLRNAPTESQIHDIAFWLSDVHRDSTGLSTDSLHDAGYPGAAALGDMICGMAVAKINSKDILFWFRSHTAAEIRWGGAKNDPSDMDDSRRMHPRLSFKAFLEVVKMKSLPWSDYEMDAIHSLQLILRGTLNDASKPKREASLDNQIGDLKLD

T2: full-length AsphyA (Avena sativa, UniProt P06593)
T2 construct: Full-length phytochrome genes of AsPHYA; made in house; host or cells: Pichia pastoris GS115
T2 sequence (P06593 1-1129): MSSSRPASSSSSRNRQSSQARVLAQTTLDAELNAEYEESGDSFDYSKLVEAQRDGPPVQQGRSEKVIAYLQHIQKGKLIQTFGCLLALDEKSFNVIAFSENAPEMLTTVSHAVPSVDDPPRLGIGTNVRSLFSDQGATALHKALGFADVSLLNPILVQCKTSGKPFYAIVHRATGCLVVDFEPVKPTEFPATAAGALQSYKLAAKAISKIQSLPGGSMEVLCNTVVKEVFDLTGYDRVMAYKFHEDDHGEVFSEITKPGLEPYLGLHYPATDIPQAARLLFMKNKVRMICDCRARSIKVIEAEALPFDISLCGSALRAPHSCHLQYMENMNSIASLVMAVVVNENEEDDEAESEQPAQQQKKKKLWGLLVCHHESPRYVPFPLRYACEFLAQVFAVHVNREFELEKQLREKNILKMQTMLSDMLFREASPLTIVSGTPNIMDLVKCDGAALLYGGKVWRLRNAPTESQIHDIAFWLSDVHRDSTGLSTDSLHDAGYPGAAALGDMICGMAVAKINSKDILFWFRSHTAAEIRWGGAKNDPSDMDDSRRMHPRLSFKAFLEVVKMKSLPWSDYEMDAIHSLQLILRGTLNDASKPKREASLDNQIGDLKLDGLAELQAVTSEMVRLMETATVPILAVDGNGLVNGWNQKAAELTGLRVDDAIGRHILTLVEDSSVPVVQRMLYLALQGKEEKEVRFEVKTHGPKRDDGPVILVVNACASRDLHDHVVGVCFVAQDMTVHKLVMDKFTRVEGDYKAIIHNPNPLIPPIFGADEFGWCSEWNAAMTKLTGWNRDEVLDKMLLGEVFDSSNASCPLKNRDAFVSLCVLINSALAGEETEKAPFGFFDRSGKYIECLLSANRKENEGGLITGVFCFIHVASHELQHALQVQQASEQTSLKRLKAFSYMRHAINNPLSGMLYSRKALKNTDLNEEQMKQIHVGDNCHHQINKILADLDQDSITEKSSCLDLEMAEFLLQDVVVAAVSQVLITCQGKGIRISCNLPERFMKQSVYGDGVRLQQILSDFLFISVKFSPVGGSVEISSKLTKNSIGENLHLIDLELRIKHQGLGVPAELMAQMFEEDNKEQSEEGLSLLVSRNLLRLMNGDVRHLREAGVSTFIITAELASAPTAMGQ

B1: Avena sativa phytochrome A, full-length wild type (natural protein, UniProt P06593 1-1129, looked up)
chain: T2 sequence (P06593 1-1129)
modifications: phycocyanobilin chromophore assembled (chromophore-binding site C322)
notes: Avena sativa (oat) phytochrome A, full-length gene AsPHYA; 1129 residues by the printed construct limits (66-1129aa); Used as Pr (far-red irradiated) and Pfr (red irradiated) forms; also called AsphyA; FL-AsphyA; source: phycocyanobilin added in vitro
B2: AsphyA K411L, full length (natural protein, Avena sativa, UniProt P06593 1-1129, looked up)
chain: T2 sequence (P06593 1-1129) with K411L
modifications: phycocyanobilin chromophore assembled
notes: Avena sativa phytochrome A, full length, with K411L; source: phycocyanobilin added in vitro
B3: AsphyA D422R, full length (natural protein, Avena sativa, UniProt P06593 1-1129, looked up)
chain: T2 sequence (P06593 1-1129) with D422R
modifications: phycocyanobilin chromophore assembled
notes: Avena sativa phytochrome A, full length, with D422R; source: phycocyanobilin added in vitro
B4: AsphyA T418D, full length (natural protein, Avena sativa, UniProt P06593 1-1129, looked up)
chain: T2 sequence (P06593 1-1129) with T418D
modifications: phycocyanobilin chromophore assembled
notes: Avena sativa phytochrome A, full length, with T418D; source: phycocyanobilin added in vitro
B5: GST/strep-fused Arabidopsis PIF4 (natural protein, UniProt Q8W2F3 1-430, looked up)
chain: MEHQGWSFEENYSLSTNRRSIRPQDELVELLWRDGQVVLQSQTHREQTQTQKQDHHEEALRSSTFLEDQETVSWIQYPPDEDPFEPDDFSSHFFSTMDPLQRPTSETVKPKSSPEPPQVMVKPKACPDPPPQVMPPPKFRLTNSSSGIRETEMEQYSVTTVGPSHCGSNPSQNDLDVSMSHDRSKNIEEKLNPNASSSSGGSSGCSFGKDIKEMASGRCITTDRKRKRINHTDESVSLSDAIGNKSNQRSGSNRRSRAAEVHNLSERRRRDRINERMKALQELIPHCSKTDKASILDEAIDYLKSLQLQLQVMWMGSGMAAAAASAPMMFPGVQPQQFIRQIQSPVQLPRFPVMDQSAIQNNPGLVCQNPVQNQIISDRFARYIGGFPHMQAATQMQPMEMLRFSSPAGQQSQQPSSVPTKTTDGSRLDH
notes: Arabidopsis PIF4 (NM_180050); not shown: GST, N-terminal, kept

The target of data set [1] is T1, photosensory core of AsphyA (66-610). As to the kind of experiment: Binding parameters of ATP by Scatchard plot using BODIPY-FL-ATP. The method, then: (§1) To estimate dissociation constant (Kd) and the number of binding sites (n) of ATP in AsphyA proteins, an ATP analogue BODIPY-FL-ATP (BODIPY FL 2′-(or-3′)-O-(N-(2-aminoethyl)urethane) adenosine triphosphate; Molecular Probes) was used. 0.5 μM AsphyA proteins were incubated with increasing concentration of BODIPY-FL-ATP (0.5–5 μM) for 10 min at 30 °C, and free (unbound) ATP analogue was separated from the ATP analogue-protein complex by using Amicon Ultra Centrifugal Filter with MWCO of 10,000 Da for 5 min at 4,000g. The spectrophotometric absorbance was then measured to determine the BODIPY-FL-ATP concentrations within flow-through and the complex solutions by using Shimadzu UV-1800 spectrophotometer. […] The concentrations of BODIPY-FL-ATP were also double-checked by measuring the emission intensity of BODIPY fluorophore at the excitation wavelength of 500 nm and emission wavelength of 515 nm. The fluorescence of free BODIPY-FL-ATP in the absence of any protein component was used as a linear standard curve. The Kd and n values were then calculated by a Scatchard plot of r/[BODIPY-FL-ATP]free versus r, where r is the molar ratio of [BODIPY-FL-ATP]bound to [AsphyA]total.
(§2) Supplementary Figure 12. Determination of binding parameters of ATP in AsphyA proteins. The number of binding sites (n) and dissociation constant (Kd) of ATP in AsphyA proteins were determined by Scatchard plots using an ATP analogue, BODIPY-FL-ATP (BODIPY® FL 2′-(or-3′)-O-(N-(2-aminoethyl)urethane) adenosine triphosphate). The n and Kd values were calculated from the slopes (-1/Kd) and x-axis intercepts (n) of the Scatchard plot of r/[BODIPY-FL-ATP]free versus r, where r was the molar ratio of [BODIPY-FL-ATP]bound to [AsphyA]total. The n values of full-length (FL) AsphyA and photosensory core (66-610) were both calculated at around one per polypeptide, and the Kd values were calculated at approximately 0.87 × 10^-6 M for FL-AsphyA, 0.72 × 10^-6 M for […]
(§3) level, possibly due to too low ATP binding.
(§4) (1 picture or pasted object on this page, not shown here)

For the next data set, the target named is T3, T418D AsphyA mutant (Avena sativa, UniProt P06593, T418D).
T3 construct: After preparing purified full-length AsphyA mutants; made in house; host or cells: Pichia pastoris GS115
The description is as above. The protocol:
as §1, §2, §3, §4

The target of another data set is T2, full-length AsphyA. Described as above. The method, then: as §1, §2, §3, §4
The target of a further data set is T4, K411L AsphyA mutant (Avena sativa, UniProt P06593, K411L).
T4 construct: After preparing purified full-length AsphyA mutants; made in house; host or cells: Pichia pastoris GS115
The description is as above. The protocol: as §1, §2, §3, §4

The target in the next data set is T5, D422R AsphyA mutant (Avena sativa, UniProt P06593, D422R).
T5 construct: After preparing purified full-length AsphyA mutants; made in house; host or cells: Pichia pastoris GS115
The data set is described as above. The conditions noted are these: Scatchard plot with BODIPY-FL-ATP; result in words. The protocol: as §1, §2, §3, §4

Data set [2] deals with the molecule itself. As to the kind of experiment: SEC; size-exclusion chromatography of purified full-length AsphyA proteins; molecular masses estimated.
Data set [3] deals with B1. As to the kind of experiment: pull-down; GST/strep-fused interacting protein (1.0 μg) held on glutathione resin, phytochrome (1.0 μg) in solution, Pr and Pfr forms both tested; 60 min at 4 °C in pull-down buffer (100 mM Tris-HCl pH 7.8, 1 mM EDTA, 150 mM NaCl, 100 μg/ml BSA); western blot with oat22 and anti-GST. The conditions noted are these: both partners purified.
The mark [4] stands for this setting: Scatchard plot with BODIPY-FL-ATP.
Where [5] appears, read: Scatchard plot, 0.5 μM protein, BODIPY-FL-ATP 0.5–5 μM, 10 min at 30 °C, read-out: dissociation constant (Kd) of ATP.

T3 sequence (P06593 whole entry T418D): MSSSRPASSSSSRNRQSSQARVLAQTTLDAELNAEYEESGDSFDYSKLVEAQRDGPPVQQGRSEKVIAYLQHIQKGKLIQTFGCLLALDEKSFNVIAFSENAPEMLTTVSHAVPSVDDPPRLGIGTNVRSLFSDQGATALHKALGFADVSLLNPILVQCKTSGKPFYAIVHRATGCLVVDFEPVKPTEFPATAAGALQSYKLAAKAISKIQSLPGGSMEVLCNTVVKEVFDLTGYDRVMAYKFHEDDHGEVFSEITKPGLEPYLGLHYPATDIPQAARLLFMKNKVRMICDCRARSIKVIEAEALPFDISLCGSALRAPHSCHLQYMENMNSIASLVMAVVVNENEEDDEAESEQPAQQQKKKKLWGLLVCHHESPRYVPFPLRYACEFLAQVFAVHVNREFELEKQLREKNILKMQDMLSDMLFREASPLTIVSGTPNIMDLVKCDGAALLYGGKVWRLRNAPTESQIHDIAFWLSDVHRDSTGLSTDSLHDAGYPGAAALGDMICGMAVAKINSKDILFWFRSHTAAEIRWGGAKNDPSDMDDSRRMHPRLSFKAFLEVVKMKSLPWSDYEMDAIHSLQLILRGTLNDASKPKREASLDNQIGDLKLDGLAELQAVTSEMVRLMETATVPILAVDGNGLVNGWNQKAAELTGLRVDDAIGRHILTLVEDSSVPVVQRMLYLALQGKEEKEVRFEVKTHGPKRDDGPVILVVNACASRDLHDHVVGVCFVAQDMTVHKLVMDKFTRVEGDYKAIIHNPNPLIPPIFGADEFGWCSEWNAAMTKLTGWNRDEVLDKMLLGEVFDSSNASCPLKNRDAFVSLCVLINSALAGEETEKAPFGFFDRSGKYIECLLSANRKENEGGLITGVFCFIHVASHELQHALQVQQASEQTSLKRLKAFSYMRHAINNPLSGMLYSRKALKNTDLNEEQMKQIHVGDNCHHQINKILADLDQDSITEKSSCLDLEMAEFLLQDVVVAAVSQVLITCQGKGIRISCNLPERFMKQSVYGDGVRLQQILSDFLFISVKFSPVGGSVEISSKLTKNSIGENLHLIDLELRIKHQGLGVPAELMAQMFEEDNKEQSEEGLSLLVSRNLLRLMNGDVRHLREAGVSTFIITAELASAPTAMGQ
T4 sequence (P06593 whole entry K411L): as the sequence (P06593 whole entry T418D) above, with K411L, D418T counted along it
T5 sequence (P06593 whole entry D422R): as the sequence (P06593 whole entry T418D) above, with D418T, D422R counted along it

The Kd is a measure of binding affinity in units of concentration. In the case of `CC1=CC(C)=[N+]2C1=Cc1ccc(CCC(=O)NCCNC(=O)O[C@H]3[C@@H](O)[C@H](n4cnc5c(N)ncnc54)O[C@@H]3COP(=O)(O)OP(=O)(O)OP(=O)(O)O)n1[B-]2(F)F` [BODIPY-FL-ATP, BODIPY FL 2′-(or-3′)-O-(N-(2-aminoethyl)urethane) adenosine triphosphate], the “number of binding sites (n) of ATP” value (in data set [1] (setting [4]); on full-length AsphyA (setting [4])) was “approximately one” in each case. Besides, the Kd is 720 nM in data set [1] (setting [5]), roughly 4760 nM on T418D AsphyA mutant, roughly 870 nM at full-length AsphyA (setting [5]) and roughly 1320 nM at K411L AsphyA mutant. Further, the “dissociation constant (Kd) of ATP” value on D422R AsphyA mutant is given as “unable to obtain the Kd value”.
In the case of B1, in data set [2], the binding result is listed as “binds”.
What is called stoichiometry N is a count of units in the complex or per binding partner. Consider B2, for which the “stoichiometry N” value in data set [2] is 2.
The same measure, in the same setting: for B3 the value was 2; for B4, 2.
B5: the binding result in data set [3] is “binds”.
